According to patent publication US12522576B2, “Polymorphs of D9-THC naphthoylester” (priority 2019, dated 2026):
Values after ≈ are worked out from the molar mass of the structure shown.

Tests used:
Type in all cases: physicochemical
[1] = Gravimetric solubility; details: thermodynamic from solid
Description: Additional solids or solvents were added to visual solubility samples with vials less than 100 mg/mL to produce slurries at 20 and 50° C. for the subsequent equilibrium solubility assessment. The slurries were stirred at 20 and 50° C. overnight, filtered through 0.2 μm syringe filters and evaporated to dryness under reduced pressure at ambient temperature. Gravimetric solubility was calculated by dividing the dry solids residue mass (mg) by the solvent mass (g). The mg/g solubility values were then converted to mg/mL using solvent density.
The solubility of Group D acetone and DMF solvates were assessed in the corresponding solvents.

[2] = Visual solubility of Form B
Description: Solubility of D9-THC-naphthoylester, Form B (Batch 2) was determined by visual assessment in various solvents at RT and 50° C. Aliquots of solvent were added to 20 mg of solids at room temperature and 25 mg of solids at 50° C. until complete dissolution or until a maximum volume of 1 mL was added.

[3] = D9 solubility in the liquors at isolation temperature; details: organic solvent or mixture, thermodynamic from solid
Description: At the end of each experiment, suspensions were equilibrated at the isolation temperature (25 or 5° C.) for at least 18 hours and the solids and liquors separated by centrifugation at the isolation temperature. The Exo/D9/D8 ratio (Exo-D9-THC-naphthoylester impurity/D9-THC-naphthoylester/D8-THC-naphthoylester) was determined in both the isolated solids and the liquors, from which the % Exo-depletion in the isolated solids was calculated. Several solids were also isolated at elevated temperatures to assess the impact of the isolation temperature on Exo-impurity depletion.
In addition, the solubility of D9 in the liquors was determined in most of the explored solvents and used to estimate the yield.

Q: What does the source list for `CCCCCc1cc(OC(=O)c2ccc3ccccc3c2)c2c(c1)OC(C)(C)[C@@H]1CCC(C)=C[C@@H]21` [Form B, (6aR,10aR)-6a,7,8,10a-tetrahydro-6,6,9-trimethyl-3-pentyl-6H-dibenzo[b,d]pyran-1-yl ester]?
A: solubility ([1]; 20 °C, organic solvent or mixture, solvent Acetone/MeOH (1:3), RT, read-out: Gravimetric Solubility at RT): ~9 mg/mL (≈ 19.2 mM); solubility ([1]; 20 °C, organic solvent or mixture, solvent BuOH/MeOH (1:3), RT, read-out: Gravimetric Solubility at RT): ~6 mg/mL (≈ 12.8 mM); solubility ([1]; 20 °C, organic solvent or mixture, solvent EtOH, RT, read-out: Gravimetric Solubility at RT): ~7 mg/mL (≈ 14.9 mM); solubility ([1]; 20 °C, organic solvent or mixture, solvent Heptane, RT, read-out: Gravimetric Solubility at RT): ~33 mg/mL (≈ 70.4 mM); solubility ([1]; 20 °C, organic solvent or mixture, solvent IPA:water (9:1), RT, read-out: Gravimetric Solubility at RT): ~3 mg/mL (≈ 6.4 mM); solubility ([1]; 20 °C, organic solvent or mixture, solvent IPA, RT, read-out: Gravimetric Solubility at RT): ~7 mg/mL (≈ 14.9 mM); solubility ([1]; 20 °C, organic solvent or mixture, solvent MeCN, RT, read-out: Gravimetric Solubility at RT): ~14 mg/mL (≈ 29.9 mM); solubility ([1]; 20 °C, organic solvent or mixture, solvent MeOH, RT, read-out: Gravimetric Solubility at RT): ~3 mg/mL (≈ 6.4 mM); solubility ([1]; 20 °C, solvent Water, RT, read-out: Gravimetric Solubility at RT): < 1 mg/mL; solubility ([1]; organic solvent or mixture, solvent Acetone/MeOH (1:3), 50° C., read-out: Gravimetric Solubility at 50° C.): ~41 mg/mL (≈ 87.5 mM); solubility ([1]; organic solvent or mixture, solvent BuOH/MeOH (1:3), 50° C., read-out: Gravimetric Solubility at 50° C.): ~24 mg/mL (≈ 51.2 mM); solubility ([1]; organic solvent or mixture, solvent EtOH, 50° C., read-out: Gravimetric Solubility at 50° C.): ~29 mg/mL (≈ 61.9 mM); solubility ([1]; organic solvent or mixture, solvent IPA:water (9:1), 50° C., read-out: Gravimetric Solubility at 50° C.): ~18 mg/mL (≈ 38.4 mM); solubility ([1]; organic solvent or mixture, solvent IPA, 50° C., read-out: Gravimetric Solubility at 50° C.): ~45 mg/mL (≈ 96 mM); solubility ([1]; organic solvent or mixture, solvent MeCN, 50° C., read-out: Gravimetric Solubility at 50° C.): ~35 mg/mL (≈ 74.7 mM); solubility ([1]; organic solvent or mixture, solvent MeOH, 50° C., read-out: Gravimetric Solubility at 50° C.): ~12 mg/mL (≈ 25.6 mM); solubility ([1]; solvent Water, 50° C., read-out: Gravimetric Solubility at 50° C.): < 1 mg/mL; solubility ([2]; alcohols, organic solvent or mixture, thermodynamic from solid, read-out: Solubility): < 10 mg/mL; solubility ([2]; common organic solvents, organic solvent or mixture, thermodynamic from solid, read-out: Solubility): > 100 mg/mL; solubility ([2]; organic solvent or mixture, thermodynamic from solid, solvent 1,4-Dioxane, RT, read-out: Visual Solubility at RT): > 404 mg/mL; solubility ([2]; organic solvent or mixture, thermodynamic from solid, solvent 2Me-THF, RT, read-out: Visual Solubility at RT): > 368 mg/mL; solubility ([2]; organic solvent or mixture, thermodynamic from solid, solvent Acetone/MeOH (1:3), 50° C., read-out: Visual Solubility at 50° C.): 25 to 40 mg/mL (≈ 53.3 to 85.4 mM); solubility ([2]; organic solvent or mixture, thermodynamic from solid, solvent Acetone/MeOH (1:3), RT, read-out: Visual Solubility at RT): 10 to 20 mg/mL (≈ 21.3 to 42.7 mM); solubility ([2]; organic solvent or mixture, thermodynamic from solid, solvent Acetone, RT, read-out: Visual Solubility at RT): 94 to 376 mg/mL (≈ 201 to 802 mM); solubility ([2]; organic solvent or mixture, thermodynamic from solid, solvent BuOH/MeOH (1:3), 50° C., read-out: Visual Solubility at 50° C.): 26 to 51 mg/mL (≈ 55.5 to 109 mM); solubility ([2]; organic solvent or mixture, thermodynamic from solid, solvent BuOH/MeOH (1:3), RT, read-out: Visual Solubility at RT): < 10 mg/mL; solubility ([2]; organic solvent or mixture, thermodynamic from solid, solvent Cyclohexane, RT, read-out: Visual Solubility at RT): 92 to 368 mg/mL (≈ 196 to 785 mM); solubility ([2]; organic solvent or mixture, thermodynamic from solid, solvent DCM, RT, read-out: Visual Solubility at RT): > 404 mg/mL; solubility ([2]; organic solvent or mixture, thermodynamic from solid, solvent DMSO, 50° C., read-out: Visual Solubility at 50° C.): 25 to 50 mg/mL (≈ 53.3 to 107 mM); solubility ([2]; organic solvent or mixture, thermodynamic from solid, solvent DMSO, RT, read-out: Visual Solubility at RT): 18 to 46 mg/mL (≈ 38.4 to 98.2 mM); solubility ([2]; organic solvent or mixture, thermodynamic from solid, solvent EtOAc, RT, read-out: Visual Solubility at RT): > 372 mg/mL; solubility ([2]; organic solvent or mixture, thermodynamic from solid, solvent EtOH, 50° C., read-out: Visual Solubility at 50° C.): 25 to 50 mg/mL (≈ 53.3 to 107 mM); solubility ([2]; organic solvent or mixture, thermodynamic from solid, solvent EtOH, RT, read-out: Visual Solubility at RT): < 9 mg/mL; solubility ([2]; organic solvent or mixture, thermodynamic from solid, solvent Heptane, 50° C., read-out: Visual Solubility at 50° C.): 127 to 254 mg/mL (≈ 271 to 542 mM); solubility ([2]; organic solvent or mixture, thermodynamic from solid, solvent Heptane, RT, read-out: Visual Solubility at RT): 20 to 51 mg/mL (≈ 42.7 to 109 mM); solubility ([2]; organic solvent or mixture, thermodynamic from solid, solvent IPA:water (9:1), 50° C., read-out: Visual Solubility at 50° C.): < 27 mg/mL; solubility ([2]; organic solvent or mixture, thermodynamic from solid, solvent IPA:water (9:1), RT, read-out: Visual Solubility at RT): < 10 mg/mL; solubility ([2]; organic solvent or mixture, thermodynamic from solid, solvent IPA, 50° C., read-out: Visual Solubility at 50° C.): 25 to 50 mg/mL (≈ 53.3 to 107 mM); solubility ([2]; organic solvent or mixture, thermodynamic from solid, solvent IPA, RT, read-out: Visual Solubility at RT): < 10 mg/mL; solubility ([2]; organic solvent or mixture, thermodynamic from solid, solvent MIBK, RT, read-out: Visual Solubility at RT): 105 to 420 mg/mL (≈ 224 to 896 mM); solubility ([2]; organic solvent or mixture, thermodynamic from solid, solvent MTBE, RT, read-out: Visual Solubility at RT): 93 to 372 mg/mL (≈ 198 to 794 mM); solubility ([2]; organic solvent or mixture, thermodynamic from solid, solvent MeCN, 50° C., read-out: Visual Solubility at 50° C.): 25 to 50 mg/mL (≈ 53.3 to 107 mM); solubility ([2]; organic solvent or mixture, thermodynamic from solid, solvent MeCN, RT, read-out: Visual Solubility at RT): 9 to 18 mg/mL (≈ 19.2 to 38.4 mM); solubility ([2]; organic solvent or mixture, thermodynamic from solid, solvent MeOH, 50° C., read-out: Visual Solubility at 50° C.): < 25 mg/mL; solubility ([2]; organic solvent or mixture, thermodynamic from solid, solvent MeOH, RT, read-out: Visual Solubility at RT): < 9 mg/mL; solubility ([2]; organic solvent or mixture, thermodynamic from solid, solvent THF/MeOH (1:1), RT, read-out: Visual Solubility at RT): 98 to 392 mg/mL (≈ 209 to 836 mM); solubility ([2]; organic solvent or mixture, thermodynamic from solid, solvent Toluene, RT, read-out: Visual Solubility at RT): > 376 mg/mL; solubility ([2]; thermodynamic from solid, solvent Water, 50° C., read-out: Visual Solubility at 50° C.): < 24 mg/mL; solubility ([2]; thermodynamic from solid, solvent Water, RT, read-out: Visual Solubility at RT): < 9 mg/mL; solubility ([2]; water): poorly soluble; solubility ([3]; 1,4-Dioxane/MeOH (1:9), 25 °C, batch 5, 1,4-Dioxane/MeOH (1:9), seed E/G, heat T 50, isolation T 25, SP 3, 4.8 mL/g): 6 mg/mL (≈ 12.8 mM); solubility ([3]; Anisole/MeOH (1:9), 5 °C, batch 5, Anisole/MeOH (1:9), seed G, heat T 40, isolation T 5, SP 10, 30.0 mL/g): 9.8 mg/mL (≈ 20.9 mM); solubility ([3]; Cyclohexanone/EtOH (1:9), 25 °C, batch 5, Cyclohexanone/EtOH (1:9), seed G/H, heat T 55, isolation T 25, SP 16, 5.0 mL/g): 21.1 mg/mL (≈ 45 mM)
